{
  "source": "patent US20250108036A1",
  "about": "“COMPOSITIONS FOR REMOVING SENESCENT CELLS AND USES THEREOF” (LIFECEUTIX CO., LTD., priority 2021, published 2025)",
  "key": {"[1]": {"experiment": "chlorhexidine gluconate-induced peritoneal fibrosis in mice (Example 6-2)", "assay_type": "in vivo, C57BL6J mice", "details": "0.1% CHG 10 ml/kg i.p. every 2 days for 20 days; LX-112 70 mg/kg i.p. daily from day 9", "method": "After 8-week-old male C57BL6J mice (purchased from KRIBB Laboratory Animal Resource Center) were adapted to the experimental environment for 1 week, the mice were randomized into an experimental group and a control group. To induce peritoneal fibrosis, 0.1% chlorhexidine gluconate (CHG, purchased from Sigma) was dissolved in 15% ethanol phosphate buffer solution and administered intraperitoneally at a concentration of 10 ml/kg every 2 days for 20 days. From day 9, LX-112 was mixed with 0.5% CMC-Na solution (purchased from Sigma) and administered intraperitoneally at a concentration of 70 mg/kg every day. The control group (−) was administered only the solution in the same volume. On the 20th day, paraffin sections of peritoneal tissue prepared by fixation in 4% paraformaldehyde solution were stained with H/E (Hematoxylin/Eosin) and trichrome, and the thickness of the peritoneal mesothelial cell layer was measured under a light microscope."}, "[2]": {"system": "IL6, MCP1", "experiment": "serum IL6 and MCP1 ELISA in naturally aged mice (Example 7-5)", "assay_type": "in vivo, C57BL6J mice", "details": "LX-112 70 mg/kg oral daily 21 days", "method": "After 22-month-old female C57BL6J mice (purchased from KRIBB Laboratory Animal Resource Center) were adapted to the experimental environment for one week, the aged mice were randomized into an experimental group and a control group. 8-week-old mice that were not aged were used as controls. LX-112 was mixed with 0.5% CMC-Na solution (purchased from Sigma) and administered orally at a concentration of 70 mg/kg daily for 21 days. The control group was administered only the solution in the same volume. After drug administration was completed, the method described in each Example below was performed.\nSerum collected from mice was stored at −80° C. until use. The amounts of IL6 and MCP1, which are aging-related inflammation secretory factors (SASPs), were measured in serum using an enzyme-linked immunosorbent assay (ELISA Kit, purchased from R&D Systems)."}, "[3]": {"system": "SA-β-gal", "experiment": "SA-β-gal staining of tissues of doxorubicin-aged mice (Example 8-3)", "assay_type": "in vivo, C57BL6J mice", "details": "stained area; doxorubicin-aged mice, LX-112 70 mg/kg oral daily 21 days", "method": "(§1) After adapting 8-week-old male C57BL6J mice (purchased from KRIBB Laboratory Animal Resource Center) to the experimental environment for 1 week, doxorubicin, an anticancer drug, was administered intraperitoneally at a concentration of 10 mg/kg, and mice that were induced to age for more than 10 days were assigned to an experimental group and a control group. LX-112 was mixed with 0.5% CMC-Na solution (purchased from Sigma) and administered orally at a concentration of 70 mg/kg daily for 21 days. The control group was administered only the solution in the same volume. After drug administration was completed, the method described in each Example below was performed.\nMice were sacrificed in the same method in described in Example 7-3, and tissue sections were prepared from the organ tissues of each region. SA-β-gal, an aging marker was stained. […] FIG. 3 is a photographic result of staining of adipose tissue."}, "[4]": {"system": "urea, creatinine, Agtr1a mRNA", "experiment": "kidney damage markers in doxorubicin-aged mice (Example 8-9)", "assay_type": "in vivo, C57BL6J mice", "details": "LX-112 70 mg/kg oral daily 21 days, DOX without LX = 100%", "method": "as §1\nThe amounts of urea and creatinine, markers of kidney damage, in serum collected from mice were measured using spectrophotometry in the same manner as in Example 7-8. […] The amount of each factor after aging was induced by treatment with the anticancer drug was calculated as 100% and compared it with the amount of each factor after treatment with LX-112."}, "[5]": {"system": "senescent cancer (A549) cells", "experiment": "survival of senescent A549 cancer cells treated with medium supernatant of compound-killed cancer cells (Example 14, Table 70)", "assay_type": "cell-based, human", "method": "In the same way as Examples 12 and 13, senescence of cancer (A549) cells was induced by treatment with doxorubicin or the control group (DMSO), and the cells were cultured. […] In the same manner as in Example 13, the medium supernatants comprising secreted fluid from normally proliferating and senescent cancer cells was obtained. Normally proliferating and senescent-induced cancer cells were treated with the medium supernatants.\nFurthermore, other test compounds were used in the same manner in Example 12 above at high concentrations of 30 μM, 90 μM, and 270 μM, respectively, and the cultured medium supernatant comprising secreted fluid from aged cancer cells that were killed were obtained. As a result of measuring the degree of death of aged cancer cells, it was confirmed that aged cancer cells can be effectively removed, as shown in Example 12 and Table 65."}},
  "data": [
    {"smiles": "O=c1c2ccccc2[se]n1CCn1[se]c2ccccc2c1=O", "note": "[LX-112, 1,2-[bis(1,2-benzisoselenazolone-3(2H)-ketone)]ethane]", "values": [
      {"measurement": "Submesothelial Thickness (μm)", "setting": "[1]", "result": "43.1 (±10.4) μm"},
      {"measurement": "IL6 (%)", "setting": "[2]", "result": "63 (±12.8) %"},
      {"measurement": "MCP1 (%)", "setting": "[2]", "result": "58 (±9.8) %"},
      {"measurement": "SA-β-gal (%) Kidney", "setting": "[3]", "result": "69.2 (±10.2) %"},
      {"measurement": "SA-β-gal (%) Liver", "setting": "[3]", "result": "67.4 (±9.9) %"},
      {"measurement": "SA-β-gal (%) Lung", "setting": "[3]", "result": "64.2 (±9.2) %"},
      {"measurement": "SA-β-gal (%) eWAT", "setting": "[3]", "result": "51.4 (±13.4) %"},
      {"measurement": "Agtr1a mRNA (%)", "setting": "[4]", "result": "75 (±9) %"},
      {"measurement": "Creatinine (%)", "setting": "[4]; serum", "result": "89 (±4) %"},
      {"measurement": "Urea (%)", "setting": "[4]; serum", "result": "91.2 (±1.2) %"}
    ]},
    {"smiles": "COC(=O)c1ccc([C@H]2c3[nH]c4ccccc4c3C[C@H](C(=O)OC)N2C(=O)CCl)cc1", "note": "[LX-405]", "values": [
      {"measurement": "Survival (%)", "setting": "[5]; supernatant from No Cells", "result": "98.2 (±2.8) %"},
      {"measurement": "Survival (%)", "setting": "[5]; supernatant from death-induced proliferating cells (LX-405 30 μM)", "result": "78.8 (±7.7) %"},
      {"measurement": "Survival (%)", "setting": "[5]; supernatant from death-induced senescent cells (LX-405 30 μM)", "result": "72.5 (±5.7) %"}
    ]}
  ]
}
